# In ChEMBL document CHEMBL3797052 (Eur J Med Chem, 2016):
# Experiments:
# MDA-MB-435 [1] = experiment: Antiproliferative activity against human MDA-MB-435 cells assessed as cell growth at 10^-4 M after 48 hrs by sulforhodamine B assay; type: functional; settings: MDA-MB-435, 48 h, read-out: Activity
# [2] = Antiproliferative activity against human OVCAR3 cells assessed as cell growth at 10^-4 M after 48 hrs by sulforhodamine B assay; type: functional; settings: OVCAR-3, 48 h, read-out: Activity
# HT-29 = experiment: Antiproliferative activity against human HT-29 cells assessed as cell growth at 10^-6 M after 48 hrs by sulforhodamine B assay; type: functional; settings: HT-29, 48 h, read-out: Activity
# NCI-H322M = experiment: Antiproliferative activity against human NCI-H322M cells assessed as cell growth at 10^-7 M after 48 hrs by sulforhodamine B assay; type: functional; settings: read-out: Activity
# [3] = Antiproliferative activity against human TK10 cells assessed as cell growth at 10^-6 M after 48 hrs by sulforhodamine B assay; type: functional; settings: TK-10, 48 h, read-out: Activity
# CCRF-CEM [4] = experiment: Antiproliferative activity against human CCRF-CEM cells assessed as cell growth at 10^-8 M after 48 hrs by sulforhodamine B assay; type: functional; settings: read-out: Activity
# MDA-MB-468 = experiment: Antiproliferative activity against human MDA-MB-468 cells assessed as cell growth at 10^-4 M after 48 hrs by sulforhodamine B assay; type: functional; settings: MDA-MB-468, 48 h, read-out: Activity
# [5] = Antiproliferative activity against human NCI-ADR-RES cells assessed as cell growth at 10^-6 M after 48 hrs by sulforhodamine B assay; type: functional; settings: read-out: Activity
# MDA-MB-231 = experiment: Antiproliferative activity against human MDA-MB-231 cells assessed as cell growth at 10^-4 M after 48 hrs by sulforhodamine B assay; type: functional; settings: MDA-MB-231, 48 h, read-out: Activity
# [6] = Antiproliferative activity against human HOP62 cells assessed as cell growth at 10^-6 M after 48 hrs by sulforhodamine B assay; type: functional; settings: HOP-62, 48 h, read-out: Activity
# [7] = Antiproliferative activity against human SNB19 cells assessed as cell growth at 10^-4 M after 48 hrs by sulforhodamine B assay; type: functional; settings: SNB-19, 48 h, read-out: Activity
# CCRF-CEM [8] = experiment: Antiproliferative activity against human CCRF-CEM cells assessed as cell growth at 10^-6 M after 48 hrs by sulforhodamine B assay; type: functional; settings: read-out: Activity
# [9] = Antiproliferative activity against human LOXIMVI cells assessed as cell growth at 10^-7 M after 48 hrs by sulforhodamine B assay; type: functional; settings: LOX IMVI, read-out: Activity
# [10] = Antiproliferative activity against human DU145 cells assessed as cell growth at 10^-4 M after 48 hrs by sulforhodamine B assay; type: functional; settings: DU-145, 48 h, read-out: Activity
# KM12 = experiment: Antiproliferative activity against human KM12 cells assessed as cell growth at 10^-4 M after 48 hrs by sulforhodamine B assay; type: functional; settings: KM12, 48 h, read-out: Activity
# NCI-H226 = experiment: Antiproliferative activity against human NCI-H226 cells assessed as cell growth at 10^-6 M after 48 hrs by sulforhodamine B assay; type: functional; settings: NCI-H226, 48 h, read-out: Activity
# [11] = Antiproliferative activity against human HCC2998 cells assessed as cell growth at 10^-7 M after 48 hrs by sulforhodamine B assay; type: functional; settings: HCC 2998, 48 h, read-out: Activity
# 786-0 = experiment: Antiproliferative activity against human 786-0 cells assessed as growth inhibition after 48 hrs by sulforhodamine B assay; type: functional; settings: 786-0, 48 h
# [12] = Antiproliferative activity against human Hs 578T cells assessed as cell growth at 10^-6 M after 48 hrs by sulforhodamine B assay; type: functional; settings: read-out: Activity
# MCF7 = experiment: Antiproliferative activity against human MCF7 cells assessed as cell growth at 10^-6 M after 48 hrs by sulforhodamine B assay; type: functional; settings: MCF7, 48 h, read-out: Activity
# [13] = Antiproliferative activity against human OVCAR5 cells assessed as growth inhibition after 48 hrs by sulforhodamine B assay; type: functional; settings: OVCAR-5, 48 h; for CC50: read-out: LC50 (the source's name)
# CYP2D6 = CYP2D6 (Homo sapiens, UniProt P10635); experiment: Inhibition of recombinant human CYP2D6 assessed as remaining enzyme activity using CYP2D6 blue as substrate at 10 uM after 5 mins in presence of NADP by fluorescence plate reader analysis; type: ADME; settings: recombinant human CYP2D6, probe CYP2D6 blue, read-out: Activity
# [14] = Antiproliferative activity against human COLO205 cells assessed as cell growth at 10^-8 M after 48 hrs by sulforhodamine B assay; type: functional; settings: COLO 205, 48 h, read-out: Activity
# [15] = Antiproliferative activity against human TK10 cells assessed as cell growth at 10^-4 M after 48 hrs by sulforhodamine B assay; type: functional; settings: TK-10, 48 h, read-out: Activity
# [16] = Antiproliferative activity against human SF539 cells assessed as cell growth at 10^-8 M after 48 hrs by sulforhodamine B assay; type: functional; settings: SF-539, 48 h, read-out: Activity
# [17] = Antiproliferative activity against human SF295 cells assessed as cell growth at 10^-6 M after 48 hrs by sulforhodamine B assay; type: functional; settings: SF-295, 48 h, read-out: Activity
# [18] = Antiproliferative activity against human UO31 cells assessed as growth inhibition after 48 hrs by sulforhodamine B assay; type: functional; settings: UO-31, 48 h
# NCI-H23 = experiment: Antiproliferative activity against human NCI-H23 cells assessed as cell growth at 10^-8 M after 48 hrs by sulforhodamine B assay; type: functional; settings: NCI-H23, 48 h, read-out: Activity
# NCI-H522 = experiment: Antiproliferative activity against human NCI-H522 cells assessed as cell growth at 10^-8 M after 48 hrs by sulforhodamine B assay; type: functional; settings: NCI-H522, 48 h, read-out: Activity
# SK-MEL-2 = experiment: Antiproliferative activity against human SK-MEL-2 cells assessed as cell growth at 10^-4 M after 48 hrs by sulforhodamine B assay; type: functional; settings: SK-MEL-2, 48 h, read-out: Activity
# [19] = Antiproliferative activity against human DU145 cells assessed as growth inhibition after 48 hrs by sulforhodamine B assay; type: functional; settings: DU-145, 48 h; for CC50: read-out: LC50 (the source's name)
# [20] = Antiproliferative activity against human HL-60(TB) cells assessed as growth inhibition after 48 hrs by sulforhodamine B assay; type: functional; settings: HL-60, 48 h
# [21] = Antiproliferative activity against human Hs 578T cells assessed as cell growth at 10^-7 M after 48 hrs by sulforhodamine B assay; type: functional; settings: read-out: Activity
# MDA-MB-435 [22] = experiment: Antiproliferative activity against human MDA-MB-435 cells assessed as cell growth at 10^-6 M after 48 hrs by sulforhodamine B assay; type: functional; settings: MDA-MB-435, 48 h, read-out: Activity
# T47D = experiment: Antiproliferative activity against human T47D cells assessed as growth inhibition after 48 hrs by sulforhodamine B assay; type: functional; settings: for CC50: read-out: LC50 (the source's name)
# [23] = read-out: LC50 (the source's name)
# CYP2D6, sequence (P10635 whole entry): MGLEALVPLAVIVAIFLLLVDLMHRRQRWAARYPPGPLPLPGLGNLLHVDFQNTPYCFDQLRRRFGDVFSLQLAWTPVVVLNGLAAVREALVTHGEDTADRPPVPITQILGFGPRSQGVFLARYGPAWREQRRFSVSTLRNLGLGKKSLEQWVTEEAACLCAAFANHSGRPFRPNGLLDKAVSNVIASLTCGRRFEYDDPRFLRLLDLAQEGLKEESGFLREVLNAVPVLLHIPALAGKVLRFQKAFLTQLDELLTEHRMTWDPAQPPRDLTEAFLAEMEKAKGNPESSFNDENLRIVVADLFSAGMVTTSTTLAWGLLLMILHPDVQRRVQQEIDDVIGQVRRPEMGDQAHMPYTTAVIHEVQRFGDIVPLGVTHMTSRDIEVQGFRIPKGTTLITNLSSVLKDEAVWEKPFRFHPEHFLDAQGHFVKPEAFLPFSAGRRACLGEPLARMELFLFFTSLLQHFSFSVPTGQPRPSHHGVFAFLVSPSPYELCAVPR
compound,measurement,setting,value
CNC(=O)c1cc(Oc2ccc3nc(NC(=O)Nc4ccc(Cl)c(C(F)(F)F)c4)sc3c2)ccn1,growth at 100 µM,MDA-MB-435 [1],40%
same,growth at 100 µM,[2],-14%
same,growth at 1 µM,HT-29,91%
same,growth at 0.1 µM,NCI-H322M,103%
same,growth at 1 µM,[3],109%
same,growth at 0.01 µM,CCRF-CEM [4],105%
same,growth at 100 µM,MDA-MB-468,-43%
same,growth at 1 µM,[5],94%
same,growth at 100 µM,MDA-MB-231,-53%
same,growth at 1 µM,[6],87%
same,growth at 100 µM,[7],-49%
same,growth at 1 µM,CCRF-CEM [8],73%
same,growth at 0.1 µM,[9],102%
same,growth at 100 µM,[10],17%
same,growth at 100 µM,KM12,45%
same,growth at 1 µM,NCI-H226,98%
same,growth at 0.1 µM,[11],108%
same,GI50,786-0,1.79 µM
same,LC50,786-0,6.48 µM
same,TGI,786-0,3.4 µM
same,growth at 1 µM,[12],65%
same,growth at 1 µM,MCF7,66%
same,GI50,[13],2.46 µM
same,TGI,[13],7.55 µM
same,CC50,[13],> 100 µM
same,"activity at 5 min, 10 µM",CYP2D6,98.7%
same,growth at 0.01 µM,[14],98%
same,growth at 100 µM,[15],-62%
same,growth at 0.01 µM,[16],97%
same,growth at 1 µM,[17],90%
same,GI50,[18],2.17 µM
same,growth at 0.01 µM,NCI-H23,100%
same,growth at 0.01 µM,NCI-H522,98%
same,growth at 100 µM,SK-MEL-2,-18%
same,GI50,[19],2.24 µM
same,CC50,[19],> 100 µM
same,GI50,[20],> 100 µM
same,TGI,[20],> 100 µM
same,CC50,[20]; [23],> 100 µM
same,growth at 0.1 µM,[21],89%
same,growth at 1 µM,MDA-MB-435 [22],83%
same,GI50,T47D,0.723 µM
same,TGI,T47D,3.65 µM
same,CC50,T47D,> 100 µM
CNC(=O)c1cc(Oc2ccc(NC(=O)Nc3ccc(Cl)c(C(F)(F)F)c3)cc2)ccn1 [SORAFENIB],GI50,786-0,3.16 µM
same,TGI,786-0,10 µM
same,GI50,[13],3.16 µM
same,TGI,[13],20 µM
same,CC50,[13],79.4 µM
same,GI50,[18],2.51 µM
same,TGI,[18],7.94 µM
same,CC50,[18]; [23],39.8 µM
same,GI50,[19],3.16 µM
same,TGI,[19],10 µM
same,CC50,[19],50.1 µM
same,GI50,[20],1.58 µM
same,TGI,T47D,7.94 µM
same,CC50,T47D,31.6 µM
